In test [1] the target is T1, SARS-CoV-2 PLpro (nsp3 1564–1878) (Severe acute respiratory syndrome coronavirus 2, UniProt P0DTD1). Put plainly: biochemical. Particulars: high concentration screen, read-out: % of control remaining. Further details: FRET-quenched peptide (Pro3) cleavage by PLpro, 10 min pre-incubation, slope over 20 min, normalised to no-compound control.
Test [2] has as its target T1, SARS-CoV-2 PLpro (nsp3 1564–1878). Put plainly: biochemical. Further details: FRET-quenched peptide (Pro3) cleavage by PLpro, 10 min pre-incubation, slope over 20 min, normalised to no-compound control. Particulars: low concentration screen, read-out: % of control remaining.

Where a name gives a salt, the structure may show the parent alone. Read-outs that look alike come from different tables or passages of the source.

Regarding `c1ccc(Cn2c(-c3ccc(OC[C@H](C4CCNCC4)n4c(-c5ccccc5)nc5ccccc54)cc3)nc3ccccc32)cc1` [Deltarasin], the remaining activity at 3.75 µM in test [1] (Well no.=8476) was 92.7%. Besides, the remaining activity at 1.25 µM in test [2] (Well no.=8476) stood at 95.2%.

Regarding `CC(C)N(CCCCOCC(=O)NS(C)(=O)=O)c1cnc(-c2ccccc2)c(-c2ccccc2)n1` [NS-304], the remaining activity at 3.75 µM in test [1] (Well no.=6795) worked out at 94.6%. The remaining activity at 1.25 µM in test [2] (Well no.=6795) was 97.6%.

For `CCN1CCN(C(=O)N[C@@H](C(=O)N[C@@H]2C(=O)N3[C@@H]2SC(C)(C)[C@@H]3C(=O)O)c2ccccc2)C(=O)C1=O` [Piperacillin], in test [1] (Well no.=2107), the remaining activity at 3.75 µM worked out at 104%. Also, the remaining activity at 1.25 µM in test [2] (Well no.=2107) came out at 104%.

In the case of `CC1(NC2=NS(=O)(=O)c3sc(Cl)cc3N2)CC1` [NN414], the remaining activity at 3.75 µM in test [1] (Well no.=5436) was found to be 104%. Further, in test [2] (Well no.=5436), the remaining activity at 1.25 µM stood at 103%.

On to `Clc1ccc(COC(Cn2ccnc2)c2ccc(Cl)cc2Cl)c(Cl)c1` (stereo not drawn) [Miconazole nitrate], for which the remaining activity at 3.75 µM in test [1] (Well no.=4666) was 103%. Moreover, the remaining activity at 1.25 µM in test [2] (Well no.=4666) amounted to 102%.

Regarding `Cn1sc(=O)n(Cc2ccccc2)c1=O` [GSK-3b Inhibitor I], in test [1] (Well no.=2460), the remaining activity at 3.75 µM is 108%. Moreover, the remaining activity at 1.25 µM in test [2] (Well no.=2460) turned out to be 106%.

`CCOc1ccccc1O[C@H](c1ccccc1)[C@H]1CNCCO1` (racemic) [Reboxetine mesylate]: in test [1] (Well no.=4989), the remaining activity at 3.75 µM is 91.1%. For the same compound, the remaining activity at 1.25 µM in test [2] (Well no.=4989) was determined as 94.7%.

As for `CCCCCCCC/C=C\CCCCCCCC(=O)NCCc1ccc(O)c(O)c1` [Oleoyl dopamine], in test [1] (Well no.=4539), the remaining activity at 3.75 µM amounted to 100%. Also, the remaining activity at 1.25 µM in test [2] (Well no.=4539) amounted to 95.5%.

Consider `CCN(CCCc1ccccc1)CCCc1ccccc1` [Alverine (citrate)], for which, in test [1] (Well no.=8203), the remaining activity at 3.75 µM is 106%. The remaining activity at 1.25 µM in test [2] (Well no.=8203) is 106%.

`C[C@H](O)[C@H](O)C1=Nc2c(nc(N)[nH]c2=O)NC1` [7,8-Dihydro-L-biopterin]: the remaining activity at 3.75 µM in test [1] (Well no.=7401) turned out to be 102%. Besides, the remaining activity at 1.25 µM in test [2] (Well no.=7401) is 110%.

As for `CN1CCN(CCCN2c3ccccc3Sc3ccc(C(F)(F)F)cc32)CC1` [Trifluoperazine (dihydrochloride)], the remaining activity at 3.75 µM in test [1] (Well no.=6369) amounted to 105%. The remaining activity at 1.25 µM in test [2] (Well no.=6369) turned out to be 105%.

With `Cn1cncc1C[C@H](NC(=O)CCN)C(=O)O` [Anserine], the values for the remaining activity at 3.75 µM in test [1] (Well no.=6581) and in test [1] (Well no.=7890) were 103% and 95.1%, respectively. Further, the remaining activity at 1.25 µM in test [2] (Well no.=6581) stood at 102%; in test [2] (Well no.=7890), 91.9%.

Consider `CCCCC[C@H](O)/C=C/[C@H]1OC(O)C[C@H](O)[C@@H]1C/C=C\CCCC(=O)O` (stereo partly drawn) [Thromboxane B2], for which the remaining activity at 3.75 µM in test [1] (Well no.=4286) was 98.5%. Moreover, the remaining activity at 1.25 µM in test [2] (Well no.=4286) worked out at 99.3%.

For `COc1ccc(-c2cc(C(F)F)nn2-c2ccc(S(N)(=O)=O)cc2)cc1F` [Deracoxib], the remaining activity at 3.75 µM in test [1] (Well no.=7408) turned out to be 102%. Besides, in test [2] (Well no.=7408), the remaining activity at 1.25 µM turned out to be 106%.

`Cc1ccc(C(=O)N(CCCN)[C@@H](c2nc3cc(Cl)ccc3c(=O)n2Cc2ccccc2)C(C)C)cc1` [Ispinesib (SB-715992)]: the remaining activity at 3.75 µM in test [1] (Well no.=5243) came out at 92.3%. For the same compound, the remaining activity at 1.25 µM in test [2] (Well no.=5243) was found to be 94.6%.

As for `O=C1NC(=O)c2cc(Nc3ccc(F)cc3)c(Nc3ccc(F)cc3)cc21` [CGP 53353 - 5,6-bis[(4-Fluorophenyl)amino]-1H-isoindole-1,3(2H)-dione], the remaining activity at 3.75 µM in test [1] (Well no.=2530) is 102%. Also, the remaining activity at 1.25 µM in test [2] (Well no.=2530) worked out at 101%.

Take `CCCCCCCCCC(=O)N[C@@H](Cc1c[nH]c2ccccc12)C(=O)N[C@H](CC(N)=O)C(=O)N[C@@H](CC(=O)O)C(=O)N[C@@H]1C(=O)NCC(=O)N[C@@H](CCCN)C(=O)N[C@@H](CC(=O)O)C(=O)N[C@H](C)C(=O)N[C@@H](CC(=O)O)C(=O)NCC(=O)N[C@H](CO)C(=O)N[C@@H]([C@H](C)CC(=O)O)C(=O)N[C@@H](CC(=O)c2ccccc2N)C(=O)O[C@@H]1C` [Daptomycin]: the values for the remaining activity at 3.75 µM in test [1] (Well no.=5201) and in test [1] (Well no.=7796) were 100% and 105%, respectively. For the same compound, the remaining activity at 1.25 µM came out at 98.3% in test [2] (Well no.=5201) and 104% in test [2] (Well no.=7796).

As to `C/C=C1\C(=O)C[C@H]2[C@@H]3CCC4=CC(=O)CC[C@]4(C)[C@H]3CC[C@]12C` [Guggulsterone], in test [1] (Well no.=6918), the remaining activity at 3.75 µM was 99.7%. For the same compound, the remaining activity at 1.25 µM in test [2] (Well no.=6918) is 103%.

On to `O=C(CBr)N1CC([N+](=O)[O-])([N+](=O)[O-])C1` [RRx-001], for which, in test [1] (Well no.=8632), the remaining activity at 3.75 µM was 98.9%. The remaining activity at 1.25 µM in test [2] (Well no.=8632) amounted to 105%.

Regarding `CNC(=O)[C@H]1O[C@@H](n2cnc3c(NCc4ccc(N)cc4)ncnc32)[C@H](O)[C@@H]1O` [AB-MECA], the remaining activity at 3.75 µM in test [1] (Well no.=306) is 87.8%; in test [1] (Well no.=8699) it was 98.3%. For the same compound, the remaining activity at 1.25 µM in test [2] (Well no.=306) is 87.3%; in test [2] (Well no.=8699), 95.8%.

On to `CC(C)Oc1cccnc1N(C)C1CCN(Cc2ccc(I)cc2)CC1` [RBI-257 maleate], for which, in test [1] (Well no.=1402), the remaining activity at 3.75 µM was 105%. Also, the remaining activity at 1.25 µM in test [2] (Well no.=1402) amounted to 103%.

For `CC(C)(O)CC(=O)O` [3-Hydroxyisovaleric acid], the remaining activity at 3.75 µM in test [1] (Well no.=6925) is 98.6%. Besides, the remaining activity at 1.25 µM in test [2] (Well no.=6925) is 108%.

Regarding `O=C(O)CCc1c[nH]c2ccccc12` [3-Indolepropionic acid], in test [1] (Well no.=6597), the remaining activity at 3.75 µM was found to be 102%. Moreover, in test [2] (Well no.=6597), the remaining activity at 1.25 µM worked out at 99.7%.

On to `COc1cc(C(=O)c2ccc3ncccc3c2)cc(OC)c1OC` [quinolin-6-yl(3,4,5-trimethoxyphenyl)methanone], for which the remaining activity at 3.75 µM in test [1] (Well no.=6127) amounted to 97.9%. In addition, the remaining activity at 1.25 µM in test [2] (Well no.=6127) came to 99.8%.

With `O=C(NCCCNc1nc(Nc2cccc(NC(=O)N3CCCC3)c2)ncc1I)c1cccs1` [BX795], the remaining activity at 3.75 µM in test [1] (Well no.=2931) came to 99.2%. The remaining activity at 1.25 µM in test [2] (Well no.=2931) turned out to be 99%.

On to `COC1=C(N)C(=O)c2nc(-c3nc(C(=O)O)c(C)c(-c4ccc(OC)c(OC)c4O)c3N)ccc2C1=O` [Streptonigrin], for which the remaining activity at 3.75 µM in test [1] (Well no.=3304) is 96.9%. In addition, the remaining activity at 1.25 µM in test [2] (Well no.=3304) is 96.9%.

On to `CC(C)(Sc1ccc(CCN(CCCCC2CCCCC2)C(=O)NC2CCCCC2)cc1)C(=O)O` [GW7647], for which the remaining activity at 3.75 µM in test [1] (Well no.=621) was 96.3%. The remaining activity at 1.25 µM in test [2] (Well no.=621) amounted to 95.2%.

Regarding `NC(N)=Nc1nc(CSCCN/C=N/S(=O)(=O)c2ccc(Br)cc2)cs1` [Ebrotidine], the remaining activity at 3.75 µM in test [1] (Well no.=7003) amounted to 103%. The remaining activity at 1.25 µM in test [2] (Well no.=7003) was found to be 106%.

For `C=CCNC(N)=S` [Allylthiourea], in test [1] (Well no.=5076), the remaining activity at 3.75 µM amounted to 106%. The remaining activity at 1.25 µM in test [2] (Well no.=5076) turned out to be 106%.

Consider `O=S(=O)(O)CCSSCCS(=O)(=O)O` [Dimesna], for which, in test [1] (Well no.=5105), the remaining activity at 3.75 µM turned out to be 105%. In test [2] (Well no.=5105), the remaining activity at 1.25 µM worked out at 104%.

The values are drawn from paper PMC8286840, “Identifying SARS-CoV-2 antiviral compounds by screening for small molecule inhibitors of Nsp3 papain-like protease” (Biochemical Journal, 2021).
